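Where inhibition never reached the appropriate level, the endpoint shown equals the highest concentration tested. Otherwise, values were interpolated linearly from a five-concentration, 48-hour dose response in 96-well plates. At the GI50, growth is halved.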 Calls of active or inactive are those of the source. No stated cut-off is given here; in the data, active = GI50 up to about 1.1 µM and inactive = higher.
Tests used:
Test in all cases: NCI anticancer screen, dose series, 48 h
786-0 = system: 786-0
A498 = system: A498
A549 = system: A549
ACHN = system: ACHN
BT-549 = system: BT-549
CAKI-1 = system: CAKI-1
CCRF-CEM = system: CCRF-CEM
COLO 205 = system: COLO 205
DU-145 = system: DU-145
HCC 2998 = system: HCC 2998
HCT-116 = system: HCT-116
HCT-15 = system: HCT-15
HL-60 = system: HL-60
HOP-62 = system: HOP-62
HT-29 = system: HT-29
Hs-578T = system: Hs-578T
IGROV-1 = system: IGROV-1
K562 = system: K562
KM12 = system: KM12
LOX IMVI = system: LOX IMVI
M14 = system: M14
MCF7 = system: MCF7
MDA-MB-231 = system: MDA-MB-231
MDA-MB-435 = system: MDA-MB-435
MDA-N = system: MDA-N
MOLT-4 = system: MOLT-4
Malme-3M = system: Malme-3M
NCI-H226 = system: NCI-H226
NCI-H23 = system: NCI-H23
NCI-H460 = system: NCI-H460
NCI-H522 = system: NCI-H522
NCI/ADR-RES = system: NCI/ADR-RES
OVCAR-3 = system: OVCAR-3
OVCAR-5 = system: OVCAR-5
OVCAR-8 = system: OVCAR-8
PC-3 = system: PC-3
RPMI-8226 = system: RPMI-8226
RXF 393 = system: RXF 393
SF-268 = system: SF-268
SF-295 = system: SF-295
SF-539 = system: SF-539
SK-MEL-28 = system: SK-MEL-28
SK-MEL-2 = system: SK-MEL-2
SK-MEL-5 = system: SK-MEL-5
SK-OV-3 = system: SK-OV-3
SN12C = system: SN12C
SNB-19 = system: SNB-19
SNB-75 = system: SNB-75
SW-620 = system: SW-620
T47D = system: T47D
TK-10 = system: TK-10
U-251 = system: U-251
UACC-257 = system: UACC-257
UACC-62 = system: UACC-62
UO-31 = system: UO-31
EKVX = system: EKVX
OVCAR-4 = system: OVCAR-4
SR = system: SR

Measured: GI50

CC(C)C(/C=C/c1ccc(Cl)cc1)=N\NC(=S)NN
inactive: 786-0 20.5 µM | A498 23.8 µM | A549 31.6 µM | ACHN 10.6 µM | BT-549 23.1 µM | CAKI-1 22.4 µM | CCRF-CEM 2.68 µM | COLO 205 24.2 µM | DU-145 27.5 µM | HCC 2998 44.2 µM | HCT-116 2.99 µM | HL-60 4.99 µM | HOP-62 31.6 µM | HT-29 23.3 µM | Hs-578T 14.6 µM | IGROV-1 20.2 µM | K562 3.55 µM | KM12 23.8 µM | LOX IMVI 7.76 µM | M14 18.9 µM | MCF7 15.6 µM | MDA-MB-231 > 100 µM | MDA-MB-435 10.7 µM | MDA-N 26.2 µM | MOLT-4 4.15 µM | Malme-3M 25.2 µM | NCI-H226 10.4 µM | NCI-H23 20 µM | NCI-H460 5.26 µM | NCI-H522 6.58 µM | NCI/ADR-RES 17.7 µM | OVCAR-3 20.1 µM | OVCAR-5 30.9 µM | OVCAR-8 12 µM | PC-3 36.5 µM | RPMI-8226 11.7 µM | RXF 393 15 µM | SF-268 7.57 µM | SF-295 22.1 µM | SF-539 25.1 µM | SK-MEL-28 39.7 µM | SK-MEL-2 7.03 µM | SK-MEL-5 33 µM | SK-OV-3 33.7 µM | SN12C 14.1 µM | SNB-19 76.4 µM | SNB-75 22.9 µM | SW-620 14.1 µM | T47D 6.59 µM | TK-10 8.87 µM | U-251 6.61 µM | UACC-257 22.5 µM | UACC-62 4.51 µM | UO-31 17.9 µM
5.98 µM: HCT-15

CC(=O)c1c(-c2ccco2)c(C#N)c(=S)n(C2OC(CO)C(O)C(O)C2O)c1C (configuration not stated)
> 100 µM: HCT-15
inactive: A549 > 100 µM | ACHN > 100 µM | BT-549 > 100 µM | CAKI-1 > 100 µM | CCRF-CEM 83.9 µM | COLO 205 > 100 µM | DU-145 > 100 µM | EKVX 82 µM | HCT-116 > 100 µM | HL-60 50.9 µM | HOP-62 > 100 µM | HT-29 > 100 µM | Hs-578T 64.9 µM | IGROV-1 > 100 µM | K562 95.5 µM | KM12 > 100 µM | LOX IMVI 56.6 µM | M14 72.9 µM | MCF7 88.5 µM | MDA-MB-231 > 100 µM | MDA-MB-435 36.4 µM | MDA-N 92.3 µM | MOLT-4 47.2 µM | Malme-3M > 100 µM | NCI-H23 > 100 µM | NCI-H460 > 100 µM | NCI/ADR-RES 75.9 µM | OVCAR-3 > 100 µM | OVCAR-4 75 µM | OVCAR-5 > 100 µM | OVCAR-8 > 100 µM | PC-3 > 100 µM | RPMI-8226 > 100 µM | RXF 393 > 100 µM | SF-268 > 100 µM | SF-295 > 100 µM | SF-539 56 µM | SK-MEL-28 87.7 µM | SK-MEL-5 60.3 µM | SK-OV-3 > 100 µM | SN12C 71.3 µM | SNB-19 83.6 µM | SNB-75 47.5 µM | SR 97.5 µM | SW-620 > 100 µM | T47D 35.5 µM | TK-10 > 100 µM | U-251 51.1 µM | UACC-257 > 100 µM | UACC-62 78.9 µM | UO-31 56.6 µM
